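Values below derive from 48-hour exposures of cells grown in 96-well plates, with endpoints linearly interpolated between the two concentrations bracketing the appropriate inhibition level. TGI denotes the concentration required for complete inhibition of growth.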
How the values were obtained:
Assay in all cases: growth of human tumour cells (NCI), 48 h
K-562 leukemia = system: K-562 leukemia
A549 NSCLC = system: A549 NSCLC
CAKI-1 renal = system: CAKI-1 renal
NCI-H23 lung = system: NCI-H23 lung
SNB-19 CNS = system: SNB-19 CNS
HS 578T breast = system: HS 578T breast
DMS 273 small cell lung = system: DMS 273 small cell lung
M19-MEL melanoma = system: M19-MEL melanoma
LXFL 529 NSCLC = system: LXFL 529 NSCLC
DMS 114 small cell lung = system: DMS 114 small cell lung

| Compound | TGI (K-562 leukemia) [µM] | TGI (A549 NSCLC) [µM] | TGI (CAKI-1 renal) [µM] | TGI (NCI-H23 lung) [µM] | TGI (SNB-19 CNS) [µM] | TGI (HS 578T breast) [µM] | TGI (DMS 273 small cell lung) [µM] | TGI (M19-MEL melanoma) [µM] | TGI (LXFL 529 NSCLC) [µM] | TGI (DMS 114 small cell lung) [µM] |
| --- | --- | --- | --- | --- | --- | --- | --- | --- | --- | --- |
| CN(C)CCNC(=O)Cn1cnc2cccc([N+](=O)[O-])c2c1=O | > 100 | > 100 | > 100 | > 100 | > 100 | > 100 |  |  |  |  |
| COc1ccc(NC(C)=O)c(C(O)CCNC(C)=O)c1 (stereo unspecified) |  | > 100 | > 100 | > 100 | > 100 | > 100 |  |  |  |  |
| Nc1ccc(C23CC4CC(C2)CC(c2ccc(N)cc2)(C4)C3)cc1 | 36.8 | > 100 | > 100 | > 100 | > 100 |  |  |  |  |  |
| CC1=NN(c2nc(N)nc(C/C(N)=N/O)n2)C(C)(C)C1 | > 100 | > 100 | > 100 | > 100 | > 100 | > 100 |  |  |  |  |
| CC(C)Oc1cccc(N2C(=NCCc3c[nH]c4ccccc34)Nc3ccncc3S2(=O)=O)c1 | > 100 | > 100 | > 100 | > 100 | > 100 | > 100 |  |  |  |  |
| CCCCCCCCCC(=O)OCC1OC(n2cc(F)c(=O)[nH]c2=O)C(NC(=O)OCc2ccccc2)C(OC(=O)CCCCCCCCC)C1O (stereo unspecified) | > 100 | > 100 | > 100 | 62 | > 100 |  | > 100 | > 100 | > 100 | 49.1 |
| O/N=C1/CC2(N3CCOCC3)C3CC/C(=N\O)C2CC1(Cc1ccccc1)C3 (stereo unspecified) | > 100 | > 100 | > 100 | > 100 | > 100 |  |  |  |  |  |
| O=c1cc(N=Nc2ccc(Cl)c(Cl)c2)[nH]c(=O)[nH]1 | 4.02 | 42.3 | 5.56 | 10.7 | 26.6 | 13.1 |  |  |  |  |
| CCCCCCCCCCCCCCCCOP(=O)(O)OCC(NC(C)=O)C(=O)O (stereo unspecified) | > 100 | > 100 | > 100 | > 100 | 35.6 | > 100 |  |  |  |  |
| CCN(CC)Cc1ccc(C(=S)Nc2ccc(C)cc2)s1 | 26.4 | 36.1 | 29.6 | 26.5 | 34.7 | 16.7 |  |  |  |  |
| COc1cc2c(cc1OC)C(=O)C1(C2)[C@H](c2ccccc2)C2C(=O)c3cc(OC)c(OC)cc3C2[C@H]1c1ccccc1 (stereo partly specified) | > 100 | > 100 | 0.648 | > 100 | > 100 | > 100 |  |  |  |  |
| COc1cc2c(cc1OC)CC1c3cc(OC)c(OC)cc3CCN1CC2 (stereo unspecified) | > 100 | > 100 | > 100 | 68 | 76.2 | > 100 |  |  |  |  |
| N=CN=CC(=S)O[C@@H]1C(=O)N2CCC[C@@]23CCCC[C@@H]13 | > 12.5 | > 12.5 | > 12.5 | > 12.5 | > 12.5 | > 12.5 |  |  |  |  |
| CSC1=NNC(SC)=NN1 | 0.308 | 0.406 | 0.311 | 0.7 | 0.336 | 0.38 |  |  |  |  |
| CC(C)(C)OC(=O)NCCCC(=O)NC1(c2cc3ccccc3s2)CCCCC1 | 51.4 | > 100 | 93.1 | 51 | > 100 | 45.8 |  |  |  |  |
| CC(=O)c1ccc2c(c1)CC1(C2)Cc2ccc3c(c2C1=O)CCC3 (stereo unspecified) | > 100 | > 100 | > 100 | > 100 | > 100 | > 100 |  |  |  |  |
| CSc1nc2c(c(N3CCOCC3)n1)C(O)n1c(nc3ccccc31)S2 (stereo unspecified) |  | > 100 | > 100 | > 100 | > 100 | 92.7 |  |  |  |  |
| COc1ccc(C2=C(N)c3ncccc3C2=O)cc1 | > 100 |  | > 100 | > 100 | > 100 | > 100 |  |  |  |  |
| O=C(NC(Cc1cnc[nH]1)C(=O)N1CCCC1)C1CCCC1 (stereo unspecified) | > 100 | > 100 | > 100 | > 100 | > 100 | > 100 |  |  |  |  |
| CCCCCCCCCCCCCCCCCCNc1nc(=O)n(C2CC(O)C(COP(=O)(O)OCC3OC(n4ccc(N)nc4=O)C(O)C3O)O2)cc1F (stereo unspecified) | > 100 | > 100 | > 100 | > 100 | > 100 | > 100 |  |  |  |  |
| CSc1nc(C)c(CCOC(C)=O)c(Cl)n1 | > 100 | > 100 | > 100 | > 100 | > 100 | > 100 |  |  |  |  |
| COc1cc(/C=C\c2nnc(/C=C\c3ccc(O)c(OC)c3)s2)ccc1O | > 21.2 | > 54.7 | 44.2 | 12.2 | > 82.1 | > 37.8 |  |  |  |  |
| ON[C@H]1C[C@@H](n2cnc3c(NC4CC4)ncnc32)[C@H](O)[C@@H]1O | > 100 | > 100 | > 100 | > 100 | > 100 | > 100 |  |  |  |  |
| CN(C)c1ccc(C2CC(c3ccc4ccccc4c3O)=NN2c2ccc([N+](=O)[O-])cc2[N+](=O)[O-])cc1 (stereo unspecified) |  | > 100 | > 100 | 77.7 |  | > 100 |  |  |  |  |
| COc1cccc(Nc2nc(N)nc(N)c2N)c1 | > 100 | > 100 | 58.3 | > 100 | > 100 | > 100 |  |  |  |  |
| CC(=O)OCC1OC(O[C@@H]2C[C@H]3C(C)(C)[C@@H](OC(C)=O)CC[C@]3(C)[C@H]3CC[C@]45C[C@]4(CC[C@H]5[C@@H](C)C[C@@H](O)[C@H](O)C(C)(C)F)[C@@]32C)C(O)C(O)C1O (stereo partly specified) |  | 3.12 | > 100 | 4.56 | 3.1 | 5.85 |  |  |  |  |
| O=C(O)[C@H](Cc1ccccc1)NCCN1CCC[C@H]1C(=O)O | > 100 | > 100 | > 100 | > 100 | > 100 |  |  |  |  |  |
| Cc1ccc(OCC2OC(n3cnc4c(Cl)nc(Cl)nc43)CC2Oc2ccc(C)cc2)cc1 (stereo unspecified) |  | 11.9 | 2.96 | 3.91 | 3.3 | 5.21 |  |  |  |  |
| Oc1cc(N2CCCC2)ccc1/C=N/N1C(=S)N(c2ccccc2)C(=Nc2ccccc2)C1=Nc1ccccc1 | > 100 | > 100 | > 100 | > 100 | > 100 | > 100 |  |  |  |  |
| CCOC(OCC)N1C(=O)C2(C(OCC)OCC)CC3C(OC(=O)N3N)c3cccc1c32 (stereo unspecified) |  | > 100 | > 100 | > 100 | > 100 |  |  |  |  |  |
